Measurements: patent US20110028686A1, “Protein binding miniature proteins” (Yale University, priority 2000, published 2011)
Square brackets hold non-standard residues; d marks the D form. Peptide text beside a SMILES is read from it. * marks the point of attachment. Fluorescein(5-NHCOCH2) = O=C(C*)Nc1ccc2c(c1)C(=O)OC21c2ccc(O)cc2Oc2cc(O)ccc21; pS = N[C@@H](COP(=O)(O)O)C(=O)O; Sar = CNCC(=O)O

Assays:
CBP KIX wild type = target: T1, CBP KIX wild type (Mus musculus, UniProt P45481); assay: Equilibrium fluorescence polarization, wild type CBP KIX; format: binding; details: 25° C.
T1 construct: made in house; host or cells: E. coli BL21(DE3) pArg
T1 sequence (P45481 586-665 limits assumed): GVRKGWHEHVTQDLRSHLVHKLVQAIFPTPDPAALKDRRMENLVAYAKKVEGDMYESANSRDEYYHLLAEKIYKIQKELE

Bcl-2 = Bcl-2 (Homo sapiens, UniProt P10415); assay: Bcl-2 binding by fluorescence emission of fluorescein-labeled peptide; details: read-out: Kd for binding to Bcl-2, 4° C., PBS
Chain of Bcl-2 (P10415 1-205): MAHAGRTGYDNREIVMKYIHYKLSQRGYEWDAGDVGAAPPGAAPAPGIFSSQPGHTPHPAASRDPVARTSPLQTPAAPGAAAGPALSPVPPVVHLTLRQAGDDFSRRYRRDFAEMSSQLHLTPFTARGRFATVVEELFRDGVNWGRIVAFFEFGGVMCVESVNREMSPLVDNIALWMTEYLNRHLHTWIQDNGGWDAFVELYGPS

With CC[C@H](C)[C@H](NC(=O)[C@H](Cc1ccc(O)cc1)NC(=O)[C@H](Cc1ccccc1)NC(=O)[C@H](Cc1ccccc1)NC(=O)[C@H](COP(=O)(O)O)NC(=O)[C@H](CC(C)C)NC(=O)[C@H](CCCNC(=N)N)NC(=O)[C@H](CCCNC(=N)N)NC(=O)[C@@H](NC(=O)[C@@H]1CCCN1C(=O)[C@H](C)NC(=O)[C@H](CC(=O)O)NC(=O)[C@H](CC(=O)O)NC(=O)CNC(=O)[C@H](C)NC(=O)[C@H](Cc1ccc(O)cc1)NC(=O)[C@@H](NC(=O)[C@@H]1CCCN1C(=O)[C@H](CCC(N)=O)NC(=O)[C@H](CO)NC(=O)[C@@H]1CCCN1C(=O)CN)[C@@H](C)O)C(C)C)C(=O)N[C@@H](CC(C)C)C(=O)N[C@@H](CC(C)C)C(=O)N[C@@H](CC(=O)O)C(=O)N[C@@H](CC(C)C)C(=O)N[C@@H](Cc1ccc(O)cc1)C(=O)N[C@@H](CC(C)C)C(=O)N[C@@H](CC(=O)O)C(=O)N[C@@H](C)C(=O)N1CCC[C@H]1C(=O)NCC(=O)N[C@H](C(=O)N[C@@H](CSCC(=O)Nc1ccc2c(c1)C(=O)OC21c2ccc(O)cc2Oc2cc(O)ccc21)C(N)=O)C(C)C [P8A] (H-GPSQPTYAGDDAPVRRL[pS]FFYILLDLYLDAPGVC(Fluorescein(5-NHCOCH2))-NH2) the Kd (CBP KIX wild type) was 1070 ± 80 nM.

Work on CC[C@H](C)[C@H](NC(=O)[C@H](Cc1ccc(O)cc1)NC(=O)[C@H](Cc1ccccc1)NC(=O)[C@H](Cc1ccccc1)NC(=O)[C@H](COP(=O)(O)O)NC(=O)[C@H](CC(C)C)NC(=O)[C@H](CCCNC(=N)N)NC(=O)[C@H](CCCNC(=N)N)NC(=O)[C@@H](NC(=O)[C@@H]1CCCN1C(=O)[C@H](C)NC(=O)[C@H](CC(=O)O)NC(=O)[C@H](CC(=O)O)NC(=O)CNC(=O)CN(C)C(=O)[C@H](Cc1ccc(O)cc1)NC(=O)[C@@H](NC(=O)[C@@H]1CCCN1C(=O)[C@H](CCC(N)=O)NC(=O)[C@H](CO)NC(=O)[C@@H]1CCCN1C(=O)CN)[C@@H](C)O)C(C)C)C(=O)N[C@@H](CC(C)C)C(=O)N[C@@H](CC(C)C)C(=O)N[C@@H](CC(=O)O)C(=O)N[C@@H](CC(C)C)C(=O)N[C@@H](Cc1ccc(O)cc1)C(=O)N[C@@H](CC(C)C)C(=O)N[C@@H](CC(=O)O)C(=O)N[C@@H](C)C(=O)N1CCC[C@H]1C(=O)NCC(=O)N[C@H](C(=O)N[C@@H](CSCC(=O)Nc1ccc2c(c1)C(=O)OC21c2ccc(O)cc2Oc2cc(O)ccc21)C(N)=O)C(C)C [P8Z] (H-GPSQPTY[Sar]GDDAPVRRL[pS]FFYILLDLYLDAPGVC(Fluorescein(5-NHCOCH2))-NH2) yielded a Kd (CBP KIX wild type) of 780 ± 50 nM.

CC[C@H](C)[C@H](NC(=O)[C@H](Cc1ccc(O)cc1)NC(=O)[C@H](Cc1ccccc1)NC(=O)[C@H](Cc1ccccc1)NC(=O)[C@H](COP(=O)(O)O)NC(=O)[C@H](CC(C)C)NC(=O)[C@H](CCCNC(=N)N)NC(=O)[C@H](CCCNC(=N)N)NC(=O)[C@@H](NC(=O)[C@@H]1CCCN1C(=O)[C@H](C)NC(=O)[C@H](CC(=O)O)NC(=O)[C@H](CC(=O)O)NC(=O)CNC(=O)[C@@H]1CCCN1C(=O)[C@H](Cc1ccc(O)cc1)NC(=O)[C@@H](NC(=O)[C@@H]1CCCN1C(=O)[C@H](CCC(N)=O)NC(=O)[C@H](CO)NC(=O)[C@@H]1CCCN1C(=O)CN)[C@@H](C)O)C(C)C)C(=O)N[C@@H](CC(C)C)C(=O)N[C@@H](CC(C)C)C(=O)N[C@@H](CC(=O)O)C(=O)N[C@@H](CC(C)C)C(=O)N[C@@H](C)C(=O)N[C@@H](CC(C)C)C(=O)N[C@@H](CC(=O)O)C(=O)N[C@@H](C)C(=O)N1CCC[C@H]1C(=O)NCC(=O)N[C@H](C(=O)N[C@@H](CSCC(=O)Nc1ccc2c(c1)C(=O)OC21c2ccc(O)cc2Oc2cc(O)ccc21)C(N)=O)C(C)C [Y27A] (H-GPSQPTYPGDDAPVRRL[pS]FFYILLDLALDAPGVC(Fluorescein(5-NHCOCH2))-NH2) gave a Kd (CBP KIX wild type) of 3090 ± 180 nM.

For CC[C@H](C)[C@H](NC(=O)[C@H](CCC(=O)O)NC(=O)[C@H](CC(=O)O)NC(=O)CNC(=O)[C@H](Cc1ccccc1)NC(=O)[C@H](Cc1ccc(O)cc1)NC(=O)[C@H](CCCNC(=N)N)NC(=O)[C@H](CC(C)C)NC(=O)[C@H](CC(C)C)NC(=O)[C@H](CCCNC(=N)N)NC(=O)CNC(=O)[C@@H](NC(=O)[C@H](Cc1ccccc1)NC(=O)[C@H](CCCNC(=N)N)NC(=O)[C@@H](NC(=O)[C@H](CC(C)C)NC(=O)[C@H](CC(=O)O)NC(=O)[C@H](CCC(=O)O)NC(=O)[C@@H](NC(=O)[C@@H]1CCCN1C(=O)[C@H](C)NC(=O)[C@H](CC(=O)O)NC(=O)[C@H](CC(=O)O)NC(=O)CNC(=O)[C@@H]1CCCN1C(=O)[C@H](Cc1ccc(O)cc1)NC(=O)[C@@H](NC(=O)[C@@H]1CCCN1C(=O)[C@H](CCC(N)=O)NC(=O)[C@H](CO)NC(=O)[C@@H]1CCCN1C(=O)CN)[C@@H](C)O)C(C)C)[C@@H](C)CC)C(C)C)C(=O)N[C@@H](CC(N)=O)C(=O)N[C@@H](CCCNC(=N)N)C(=O)N[C@@H](CCCNC(=N)N)C(N)=O [p4100] (H-GPSQPTYPGDDAPVEDLIRFVGRLLRYFGDEINRR-NH2), the Kd (Bcl-2) was 401 ± 40 nM.

In the case of CC[C@H](C)[C@H](NC(=O)[C@H](CC(=O)O)NC(=O)[C@H](CC(=O)O)NC(=O)CNC(=O)[C@H](Cc1ccccc1)NC(=O)[C@H](Cc1ccc(O)cc1)NC(=O)[C@H](C)NC(=O)[C@H](CC(C)C)NC(=O)[C@H](CC(C)C)NC(=O)[C@H](CCCNC(=N)N)NC(=O)CNC(=O)[C@@H](NC(=O)[C@H](Cc1ccccc1)NC(=O)[C@H](CCCNC(=N)N)NC(=O)[C@@H](NC(=O)[C@H](CC(C)C)NC(=O)[C@H](CC(=O)O)NC(=O)[C@H](CCC(=O)O)NC(=O)[C@@H](NC(=O)[C@@H]1CCCN1C(=O)[C@H](C)NC(=O)[C@H](CC(=O)O)NC(=O)[C@H](CC(=O)O)NC(=O)CNC(=O)[C@@H]1CCCN1C(=O)[C@H](Cc1ccc(O)cc1)NC(=O)[C@@H](NC(=O)[C@@H]1CCCN1C(=O)[C@H](CCC(N)=O)NC(=O)[C@H](CO)NC(=O)[C@@H]1CCCN1C(=O)CN)[C@@H](C)O)C(C)C)[C@@H](C)CC)C(C)C)C(=O)N[C@@H](CC(N)=O)C(=O)N[C@@H](CCCNC(=N)N)C(=O)N[C@@H](CCCNC(=N)N)C(=O)N[C@@H](Cc1ccc(O)cc1)C(=O)N[C@@H](CSCC(=O)Nc1ccc2c(c1)C(=O)OC21c2ccc(O)cc2Oc2cc(O)ccc21)C(N)=O [p4101] (H-GPSQPTYPGDDAPVEDLIRFVGRLLAYFGDDINRRYC(Fluorescein(5-NHCOCH2))-NH2), the Kd (Bcl-2) is reported as 811 ± 20 nM.

Molecule CC[C@H](C)[C@H](NC(=O)[C@H](Cc1ccc(O)cc1)NC(=O)[C@H](CCCNC(=N)N)NC(=O)[C@H](CC(C)C)NC(=O)[C@H](CCCNC(=N)N)NC(=O)[C@H](CO)NC(=O)[C@@H](NC(=O)[C@H](Cc1ccccc1)NC(=O)[C@H](CCCNC(=N)N)NC(=O)[C@@H](NC(=O)[C@H](CC(C)C)NC(=O)[C@H](CC(=O)O)NC(=O)[C@H](CCC(=O)O)NC(=O)[C@@H](NC(=O)[C@@H]1CCCN1C(=O)[C@H](C)NC(=O)[C@H](CC(=O)O)NC(=O)[C@H](CC(=O)O)NC(=O)CNC(=O)[C@@H]1CCCN1C(=O)[C@H](Cc1ccc(O)cc1)NC(=O)[C@@H](NC(=O)[C@@H]1CCCN1C(=O)[C@H](CCC(N)=O)NC(=O)[C@H](CO)NC(=O)[C@@H]1CCCN1C(=O)CN)[C@@H](C)O)C(C)C)[C@@H](C)CC)C(C)C)C(=O)N[C@@H](C)C(=O)N[C@@H](CC(=O)O)C(=O)N[C@@H](CC(C)C)C(=O)N[C@H](C(=O)N[C@@H](CC(N)=O)C(=O)N[C@@H](CCCNC(=N)N)C(=O)N[C@@H](CCCNC(=N)N)C(=O)N[C@@H](Cc1ccc(O)cc1)C(=O)N[C@@H](CSCC(=O)Nc1ccc2c(c1)C(=O)OC21c2ccc(O)cc2Oc2cc(O)ccc21)C(N)=O)[C@@H](C)CC [p4102] (H-GPSQPTYPGDDAPVEDLIRFVSRLRYIADLINRRYC(Fluorescein(5-NHCOCH2))-NH2) has a Kd (Bcl-2) of 3700 ± 1400 nM.
